In ChEMBL document CHEMBL1158302, “Makaluvic acids A and B: novel alkaloids from the marine sponge Zyzzya fuliginosus” (1996):
In brackets after ≈: the same amount, converted by molar mass. Activity calls are given as the source filed them. No cut-off for these calls is given here.

Test system: P388
Assay: Cytotoxicity against mouse P388 cells
Type: functional
Details: for EC50: read-out: ED50 (the source's name)

In the case of `CN1CCc2c[nH]c(C(=O)O)c2C1=O`, the Activity is reported as “inactive”.

With `Cn1cnc2c1c(N)nc(=O)n2C` the Activity was “inactive”.

`Cn1cc2c3c1C(=O)C(N)=CC3=NCC2` [MAKALUVAMINE A] was tested, and the EC50 was 0.4 µg/mL (≈ 1.99 µM).

Molecule `Cn1cc2c3c1C(=O)C(N/C=C/c1ccc(O)cc1)=CC3=NCC2` [MAKALUVAMINE E] has an EC50 of 0.6 µg/mL (≈ 1.88 µM).

With `Cn1cc2c3c1C(=O)C(NCCc1ccc(O)cc1)=CC3=NCC2` [MAKALUVAMINE K] the EC50 was 0.7 µg/mL (≈ 2.18 µM).
